Measured values from US20140087369A1, “INFECTION DETECTION METHODS AND SYSTEMS AND RELATED COMPOUNDS AND COMPOSITIONS” (priority 2010, published 2014).

Tested on: viral neuraminidase
Type: biochemical, influenza virus
Details: pH 5.5

Molecule: Sodium (4-(4-hydroxy-3-methoxyphenyl)butan-2-one-5-acetamido-3,5-dideoxy-α-D-glycero-D-galacto-2-nonulopyranoside)onate [zingerone]
- enzymatic cleavage of the substrate and release of odorant (decrease of substrate signal, appearance of cleavage product signals): significant loss of peak at 508.3 amu

Molecule: CC(=O)NC1C(O)CC(OCC2(C)CC2CC2CC3CC3(C)C2(C)C)(C(=O)O)OC1CC(O)CO [javanol, Sodium ([(1R,2S)-1-methyl-2-[[(1R,3S,5S)-1,2,2-trimethyl-3-bicyclo[3.1.0]hexanyl]methyl]cyclopropyl]methyl-5-acetamido-3,5-dideoxy-α-D-glycero-D-galacto-2-nonulopyranoside)onate]
- enzymatic cleavage of the substrate and release of odorant (decrease of substrate signal, appearance of cleavage product signals): substrate is still present
